Measured values published in patent US8012940B2, “Utilization of anti-neuropathic pain effect of D-allose and D-psicose” (Teikoku Seiyaku Co., Ltd., priority 2005, dated 2011).

What was measured:
[1] = system: Chung model as a rat neuropathic pain model; experiment: von Frey test, pain threshold in the Chung model; assay type: in vivo; conditions: for pain threshold at the von Frey test: vs distilled water-dosed group; for pain threshold, dose dependence: 1 to 6 g/kg oral
Protocol: Male SD rats of age 6 weeks were divided into groups, each group consisting of 10 rats. So as to examine the effect of a test substance on neuropathic pain, the Chung model was prepared. Specifically, unilateral 5-th and 6-th lumbar pulp nerves of the lumbar pulp nerves were completely knotted at a site as close as possible to lumbar vertebrae. After a 10-day recovery period, the von Frey test was done on the footpad on the surgery side, to measure the pain threshold. The von Frey test was done three times at a 1-week interval as drug holiday. At the first test, the effect of D-allose on the pain threshold was examined; and at the second test and the third test, the effects of D-psicose and a mixture of D-allose and D-psicose on the pain threshold were examined. The test substances were all dissolved in distilled water. The dose in volume was 5 mL/kg for oral administration. The pain threshold was measured immediately before the administration of test substances, and 15 minutes, 30 minutes, 60 minutes and 120 minutes after the administration. The results are expressed as mean and standard error. The significance of the mean was tested by the Dunnett's multiple test. Neuropathic pain models are frequently used as human neuralgia models for making research works on pain and screening for analgesics. […] The Chung model as the neuropathic pain model used in the research works is a model with a characteristic feature such that the model is afflicted with a strong pain on contact stimulation, and is known that the model is annoyed with a pain very similar to human neuralgia (Exp. Brain Res., 113, 200-206, 1997). In such model, the von Frey test is frequently used so as to assay the pain intensity via contact. The von Frey test is a method for observing whether or not an animal when the footpad is pressed with a fine metal wire withdraws the leg. When the animal withdraws the leg, the force just pressing the footpad is defined the threshold then.

[2] = Solubility in water; assay type: physicochemical
[3] = system: leukocyte; conditions: in vitro, cited from earlier work

| Compound | pain threshold at the von Frey test ([1]; 1 g/kg oral, N=10) | pain threshold at the von Frey test ([1]; 3 g/kg oral, 15 minutes after administration) | pain threshold at the von Frey test ([1]; 6 g/kg oral, 15, 30 and 60 minutes after administration) | pain threshold, dose dependence ([1]; single administration) | solubility in water [2] | active oxygen generation ([3]; leukocyte) | pain threshold at the von Frey test ([1]; 1 g/kg oral, 15 minutes after administration) | pain threshold at the von Frey test ([1]; 3 g/kg oral, 15 and 30 minutes after administration) | increase of the threshold compared with the administration of D-allose ([1]; single administration, oral) | MCP-1 secretion ([3]; similar experiments) | active oxygen scavenging ([3]; similar experiments) |
| --- | --- | --- | --- | --- | --- | --- | --- | --- | --- | --- | --- |
| O=C[C@H](O)[C@H](O)[C@H](O)[C@H](O)CO [D-allose] | not significantly different | significant increase | significant increase | highly raised, in a manner proportional to the dose | highly soluble in water | action of suppressing active oxygen generation |  |  |  |  |  |
| O=C(CO)[C@H](O)[C@H](O)[C@H](O)CO [D-psicose] |  |  |  | highly raised, in a manner proportional to the dose | highly soluble in water |  | not significantly different | significant increase | greater | MCP-1 secretion-suppressing action | active oxygen-scavenging action |
